Measurements as given in the supplement of paper PMC11208160.

Experiment: recombinant barcode read abundance after kanamycin selection (control-corrected) (log10(CPM+1)); higher = more efficient recombination; sequences stand for … in AGTGCAGAGAAAATCGGCCAGTTTTCTCTGCCTGCAGTCCGCATGCCGT…AGATTTATGCAGCGGACTGCCTTTCTCCCAAAGTGATAAACCGGACAGTATCATGGACCGGTTTTCCCGGTAATCCGTATTTGCAAGGTTGGTTTCACT; site = the 11-nt target
Outline: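 Duplicate cultures were plated either on chloramphenicol/ampicillin LB agar, serving as control, or on chloramphenicol/ampicillin/kanamycin with 0.1 mM IPTG. These came from a pooled E. coli library co-electroporated with a donor plasmid, each member pairing a target with an IS621 bridge RNA target-binding loop. Recombination efficiency equals averaged, control-corrected counts per million of recombinant-junction barcodes. It is listed as log10(CPM+1).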
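Note: IS621 recombinase and bridge RNA in Escherichia coli cells.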

Sequence	recombinant barcode read abundance (log10)
CATTGGACTTGGGTTCTAACCTGTTGCTT (site GATTGGACTAA)	0.023
CATTGGACTTGGGTTCTAACCTGTTGCTT (site TATTGGACTAA)	0.111
CATTGTACTTGGGTTCTAACCTGTTGCTA (site CATCGGACTTA)	0.104
CATTGTACTTGGGTTCTAACCTGTTGCTA (site CATTGTACTTA)	0.457
CCAAAGACTTGGGTTCTAACCTGTTGCAT (site CCAAAGACTAT)	0.523
CCAAAGACTTGGGTTCTAACCTGTTGCAT (site CTAAAGACTGT)	0.334
CCAACCGCTTGGGTTCTAACCTGTTGCCT (site CAAACCGCTAG)	0.0169
CCAACCGCTTGGGTTCTAACCTGTTGCCT (site CCAACCGCTAG)	0.423
CCAACCGCTTGGGTTCTAACCTGTTGCCT (site CGAACCGCTAG)	0.043
CCAACCGCTTGGGTTCTAACCTGTTGCCT (site CTAACCGCTAG)	0.0644
CCAAGCCCTTGGGTTCTAACCTGTTGCCT (site CCAAGCACTAG)	0.202
CCAAGCCCTTGGGTTCTAACCTGTTGCCT (site CCAAGCCCTAG)	0.142
CCAAGCCCTTGGGTTCTAACCTGTTGCCT (site CCAAGCGCTAG)	0.0593
CCAAGCCCTTGGGTTCTAACCTGTTGCCT (site CCAAGCTCTAG)	0.0835
CCAAGGACTTGGGTTCTAACCTGTTGCCT (site CCAAGGACTAG)	0.348
CCAAGGACTTGGGTTCTAACCTGTTGCCT (site CCACGGACTAG)	0.0394
CCAAGGACTTGGGTTCTAACCTGTTGCCT (site CCAGGGACTAG)	0.47
CCAAGGACTTGGGTTCTAACCTGTTGCCT (site CCATGGACTAG)	0.0382
CCAAGGGCTTGGGTTCTAACCTGTTGCTG (site CCAAGGGCTCA)	1.31
CCAAGGGCTTGGGTTCTAACCTGTTGCTG (site CCAAGGGCTCC)	0.136
CCAAGGGCTTGGGTTCTAACCTGTTGCTG (site CCAAGGGCTCG)	0.0611
CCAAGGGCTTGGGTTCTAACCTGTTGCTG (site CCAAGGGCTCT)	0.727

Sequence	recombinant barcode read abundance (log10)
CCACAGTCTTGGGTTCTAACCTGTTGCCT (site CCACAGTCTAG)	1.44
CCACAGTCTTGGGTTCTAACCTGTTGCCT (site CCACCGTCTAG)	0.117
CCACAGTCTTGGGTTCTAACCTGTTGCCT (site CCACGGTCTAG)	0.169
CCACAGTCTTGGGTTCTAACCTGTTGCCT (site CCACTGTCTAG)	0.0628
CCACGAGCTTGGGTTCTAACCTGTTGCGG (site CCACGAGCTCC)	1.4
CCACGAGCTTGGGTTCTAACCTGTTGCGG (site CGACGAGCTCC)	0.148
CCACGGCCTTGGGTTCTAACCTGTTGCAT (site CCACGGCCTAT)	1.21
CCACGGCCTTGGGTTCTAACCTGTTGCAT (site CCTCGGCCTAT)	0
CCACTACCTTGGGTTCTAACCTGTTGCCT (site CCACTACCTAG)	0.253
CCACTACCTTGGGTTCTAACCTGTTGCCT (site CCACTCCCTAG)	0.0236
CCACTACCTTGGGTTCTAACCTGTTGCCT (site CCACTGCCTAG)	0.0373
CCACTACCTTGGGTTCTAACCTGTTGCCT (site CCACTTCCTAG)	0.0936
CCACTGTCTTGGGTTCTAACCTGTTGCCT (site CCACAGTCTAG)	0.806
CCACTGTCTTGGGTTCTAACCTGTTGCCT (site CCACCGTCTAG)	0.0386
CCACTGTCTTGGGTTCTAACCTGTTGCCT (site CCACGGTCTAG)	0.0729
CCACTGTCTTGGGTTCTAACCTGTTGCCT (site CCACTGTCTAG)	0.632
CCAGAGTCTTGGGTTCTAACCTGTTGCCA (site CCAGAGTCTCG)	0
CCAGAGTCTTGGGTTCTAACCTGTTGCCA (site CCAGAGTCTTG)	1.22
CCAGCAGCTTGGGTTCTAACCTGTTGCCT (site CCAGAAGCTAG)	0.0762
CCAGCAGCTTGGGTTCTAACCTGTTGCCT (site CCAGCAGCTAG)	0.675
CCAGCAGCTTGGGTTCTAACCTGTTGCCT (site CCAGGAGCTAG)	0.0858
CCAGCAGCTTGGGTTCTAACCTGTTGCCT (site CCAGTAGCTAG)	0.76

Sequence	recombinant barcode read abundance (log10)
CCAGGTCCTTGGGTTCTAACCTGTTGCGT (site CCAGGTCCTAC)	2.45
CCAGGTCCTTGGGTTCTAACCTGTTGCGT (site CCAGGTCCTAT)	1.81
CCATACGCTTGGGTTCTAACCTGTTGCCT (site CCATACGCTAG)	0.178
CCATACGCTTGGGTTCTAACCTGTTGCCT (site CGAGACGCTAG)	0.189
CCATCAACTTGGGTTCTAACCTGTTGCCT (site CCATCAACTAG)	0.0699
CCATCAACTTGGGTTCTAACCTGTTGCCT (site CCATGAACTTG)	0.0637
CCATCTCCTTGGGTTCTAACCTGTTGCCT (site ACATCTCCTAG)	0.0982
CCATCTCCTTGGGTTCTAACCTGTTGCCT (site CCATCTCCTAG)	0.492
CCATCTCCTTGGGTTCTAACCTGTTGCCT (site GCATCTCCTAG)	0.127
CCATCTCCTTGGGTTCTAACCTGTTGCCT (site TCATCTCCTAG)	0.0439
CCGAAGCCTTGGGTTCTAACCTGTTGCCT (site CCGAAGCCTAG)	1.01
CCGAAGCCTTGGGTTCTAACCTGTTGCCT (site CCGCAGCCTAG)	0.256
CCGAAGCCTTGGGTTCTAACCTGTTGCCT (site CCGGAGCCTAG)	0.144
CCGAAGCCTTGGGTTCTAACCTGTTGCCT (site CCGTAGCCTAG)	0.143
CCGAATGCTTGGGTTCTAACCTGTTGCCT (site CCGAATGCTAG)	0.188
CCGAATGCTTGGGTTCTAACCTGTTGCCT (site CCGCATGCTAG)	0.0438
CCGAATGCTTGGGTTCTAACCTGTTGCCT (site CCGGATGCTAG)	0.144
CCGAATGCTTGGGTTCTAACCTGTTGCCT (site CCGTATGCTAG)	0.155
CCGATCACTTGGGTTCTAACCTGTTGCCT (site CCGATCACTAG)	1.14
CCGATCACTTGGGTTCTAACCTGTTGCCT (site CGTATCACTAG)	0.034
CCGCAGACTTGGGTTCTAACCTGTTGCTT (site CCGCAGACTAA)	1.33
CCGCAGACTTGGGTTCTAACCTGTTGCTT (site CCGCGGACTAA)	0.013

Sequence	recombinant barcode read abundance (log10)
CCGCCCTCTTGGGTTCTAACCTGTTGCTT (site CAGCCCTCTTA)	0.586
CCGCCCTCTTGGGTTCTAACCTGTTGCTT (site CCGCCCTCTAA)	0.291
CCGCGCACTTGGGTTCTAACCTGTTGCCT (site CCGCGCACTAG)	0.397
CCGCGCACTTGGGTTCTAACCTGTTGCCT (site CCGCGCTCTAG)	0.206
CCGCGTGCTTGGGTTCTAACCTGTTGCCT (site CAGCGTGCTAG)	0.161
CCGCGTGCTTGGGTTCTAACCTGTTGCCT (site CCGCGTGCTAG)	0.0933
CCGCGTGCTTGGGTTCTAACCTGTTGCCT (site CGGCGTGCTAG)	0.523
CCGCGTGCTTGGGTTCTAACCTGTTGCCT (site CTGCGTGCTAG)	0.0444
CCGCTACCTTGGGTTCTAACCTGTTGCGG (site CCGCTACCTCC)	0.474
CCGCTACCTTGGGTTCTAACCTGTTGCGG (site TCGCTAGCTCC)	0.0965
CCGTATGCTTGGGTTCTAACCTGTTGCCT (site CCGAATGCTAG)	0.234
CCGTATGCTTGGGTTCTAACCTGTTGCCT (site CCGCATGCTAG)	0.104
CCGTATGCTTGGGTTCTAACCTGTTGCCT (site CCGGATGCTAG)	0.0205
CCGTATGCTTGGGTTCTAACCTGTTGCCT (site CCGTATGCTAG)	0.168
CCGTCACCTTGGGTTCTAACCTGTTGCCT (site ACGTCACCTAG)	0.264
CCGTCACCTTGGGTTCTAACCTGTTGCCT (site CCGTCACCTAG)	1.29
CCGTCACCTTGGGTTCTAACCTGTTGCCT (site GCGTCACCTAG)	0.0965
CCGTCACCTTGGGTTCTAACCTGTTGCCT (site TCGTCACCTAG)	0.0881
CCGTCCTCTTGGGTTCTAACCTGTTGCTG (site CAGTCCTCTCA)	0.0234
CCGTCCTCTTGGGTTCTAACCTGTTGCTG (site CCGTCCTCTCA)	1.01
